From patent US20190177774A1, “MOLECULAR REFERENCE CONTROLS” (STRECK, INC., priority 2016, published 2019)

Assays:
Test in all cases: Time to stabilization (viability and sterility after addition of stabilizer)
[1] = tested on: E. coli; format: cell-based, Escherichia coli
Procedure: (§1) In one example, bacterial cells containing target gene sequences were stabilized with various cross-linkers and evaluated by microbiological methods. Viability and sterility were evaluated at various time points following addition of stabilizer. Time to stabilization was evaluated for particular bacteria/stabilizer combinations as shown below in Table 1.

[2] = tested on: N. sicca; format: cell-based, Neisseria sicca
Procedure: as §1

[3] = tested on: C. psuedo; format: cell-based, Corynebacterium pseudodiphtheriticum
Procedure: as §1

Compound	Time to Stabilization [1] [h]	Time to Stabilization [2] [h]	Time to Stabilization [3] [h]
O=CCCCC=O [Glutaraldehyde]	2	2	24
o-Phthalaldehyde	0.25	2	24
C=O [Formaldehyde]	24	24	24
O=C(CCCCCCC(=O)ON1C(=O)CC(S(=O)(=O)O)C1=O)ON1C(=O)CC(S(=O)(=O)O)C1=O (centres unmarked) [Bis[sulfosuccinimidyl] Suberate]	>120	–	–
O=C(CCCCCCC(=O)ON1C(=O)CCC1=O)ON1C(=O)CCC1=O [Disuccinimidyl Suberate]	120	–	–
